Test results published in patent US20140255471A1, “METHOD OF TREATING BRAIN TUMORS” (Wake Forest University Health Sciences, priority 2013, published 2014).
Where two headings read alike, the source gives them in different places. Each block holds one compound with its values, some of them ahead of it.

How the values were obtained:
[1] = tested on: primary astrocyte cultures; assay: Viability of primary astrocyte cultures; details: same doses as for neurons (up to 1 μM)
primary cortical neurons = assay: Viability of primary cortical neuronal cultures; details: 1 μM, 72 hours in culture
Experimental: Cortical neuronal cultures were prepared using previously described protocols. […] The tissue was further dissected into smaller pieces. After washes in cold PBS without Ca^+2/Mg^+2, tissue was incubated in 0.05% trypsin in PBS without Ca^+2/Mg^+2. Tissue was then dissociated in NB media using a blue-tip pipette. Dissociated cells were layered onto a 4% BSA cushion to remove debris. Cells were plated in NB media at a density 4×10^4 cells/well in a 24 well dish. After 24 hours, media was removed and replaced with fresh media with or without 5FU or F10. After 72 hours in culture, surviving neurons were counted. To be counted a cell had to have a phase-bright cell body and at least one neurite that was at least two times the diameter of the soma. Results are expressed as percent control (Mean±SD) where control represents cultures without the addition of 5FU or F10 (n=4 individual experiments with at least two wells per condition). Statistical significance was determined with a one-way ANOVA followed by the Bonferroni post-hoc test.

U138 cells [2] = assay: Flow cytometry of DNA content and cleaved caspase 3 in U138 cells; format: cell-based, human
Experimental: U138 cells were treated with 1 nM FdUMP[10] and/or 10 nM of AZD7762 for 9 or 1 h, respectively, prior to irradiation with a single dose of 6 Gy. Cells were harvested 24 h post-irradiation and analyzed for DNA content (A) and cleaved caspase 3 (B) by flow cytometry.

U138 cells [3] = assay: Clonogenic survival of U138 cells; format: cell-based, human; details: 1 nM FdUMP[10] and/or 10 nM AZD7762, drugs removed after 72 h, colonies counted 10 days post-treatment
Experimental: 500-2000 U138 cells were seeded into 60 mm dishes and treated with 1 nM FdUMP[10] (F1) and/or 10 nM AZD7726 (A2) and the drugs were removed after 72 h. Cells were fixed and stained with violet blue and colonies were counted using a colony counter 10 days post-treatment. […] The results are consistent with FdUMP[10]AZD7762 being synergistic at decreasing the clonogenicity of U138 cells.

U138 cells [4] = assay: Radiosensitization of U138 cells (clonogenic, 6 Gy); format: cell-based, human; details: FdUMP[10] and AZD7762 given before irradiation
Experimental: FIG. 9. Treating human glioma U138 cells with FdUMP[10] and AZD7726 enhanced their radiosensitivity. 500-2000 U138 cells were seeded into 60 mm dishes and treated with 1 nM FdUMP[10] (F1) for 9 h and 10 nM AZD7726 (A2) for 1 h prior to irradiation with a single dose of 6 Gy. Cells were fixed and stained with violet blue and colonies were counted using a colony counter at 10 days post-treatment. The study indicates combined treatment U138 with FdUMP[10] and AZD7762 sensitize cells to radiation.
Radiation is cytotoxic as a consequence of unrepaired DNA damage. […] In these studies, FdUMP[10] was administered […] prior to irradiation and AZD7762 1 h prior to radiation. Though not wishing to be bound by theory, it is thought that radiosensitization results from induction of a thymineless state following FdUMP[10] treatment and disabling of HRR and abrogation of the G2 checkpoint following AZD7762 treatment. Under these conditions, DNA repair of radiation-induced DNA damage is inhibited due to lack of thymidine while inhibiting Rad51 activation prevents HRR which is important for repair of radiation-induced DNA DSBs (Helleday 2010). Abrogating the G2-checkpoint causes cells to enter mitosis with lethally-damaged DNA enhancing the cytotoxic effects of radiation.

[5] = molecular target: T1, thymidylate synthase (TS) (Homo sapiens, UniProt P04818); assay: TS catalytic activity assay in lysates of treated GBM cells; format: cell-based; details: G48a, U-251 MG and SNB-19 GBM cells; F10 10^−6 and 10^−5 M, raltitrexed 10^−6 M
T1 construct: harvested, and lysed by freeze-fracturing; Following centrifugation of cell lysates, supernatants were assayed for protein content and TS catalytic activity; endogenous in cells; host or cells: G48a, U-251 MG and SNB-19 GBM cells
Experimental: TS assays were conducted using procedures similar to those previously described. (Gmeiner et al., Enhanced DNA-directed effects of FdUMP[10] compared to 5FU. Nucleosides Nucleotides Nucleic Acids. 2004; 23(1-2):401-410.) GBM cells were plated at a density of 1.5×10^6 cells in 100 mm^2 plates. Cells were grown overnight in RPMI 1640 medium with 10% FBS. Either 5FU (Sigma), F10, or raltitrexed were then added at the indicated concentrations and the cells were incubated for 8, 16, 24, or 48 hrs, harvested, and lysed by freeze-fracturing. Following centrifugation of cell lysates, supernatants were assayed for protein content and TS catalytic activity as previously described. (Gmeiner et al., Enhanced DNA-directed effects of FdUMP[10] compared to 5FU. Nucleosides Nucleotides Nucleic Acids. 2004; 23(1-2):401-410.)

U-251 MG = details: cited from earlier work
SF-268 = details: at or below lowest concentration evaluated; cited from earlier work
SNB-19 = details: cited from earlier work
[6] = Dose-finding / tolerability upon i.c. administration; format: in vivo, nude mice
From the text: The nanoscale size of F10 (length ˜3 nm), as well as its multiple negative charges, make penetration of the BBB following systemic delivery an inefficient process. Conversely, intra-cranial (i.c.) administration of F10 is expected to result in high local concentrations that may be therapeutically beneficial, particularly in light of the relatively strong cytotoxicity towards GBM cells and the minimal toxicity of F10 towards primary cortical neurons (FIG. 3A). Dose-finding studies in nude mice were performed to identify doses that were sufficiently well-tolerated to be evaluated in efficacy studies. F10 was dissolved in PBS and administered i.e. using an Alzet osmotic mini-pump over a 7 day period. Vehicle-only served as a control. […] These dose levels are considerably lower than those used in recent leukemia studies in which F10 was administered systemically (200 mg/kg qodx4) (Pardee et al., Unique dual targeting of thymidylate synthase and topoisomerase 1 by FdUMP[10] results in high efficacy against AML and low toxicity. Blood. 2012; 119(15):3561-3570), consistent with F10 being retained within the BBB upon i.c. administration.

[7] = tested on: CNS malignancies included in the NCI 60 cell line panel; assay: NCI 60 cell line screen, CNS malignancies of the panel; format: cell-based, human; details: several GBM cell lines
[8] = tested on: G48a orthotopic xenografts
Experimental: G48a-luc were suspended into Hanks Balanced Salt Solution to a density of 10^5 cells/μL. Nude (nu/nu) 7-week old mice were obtained from NCI. Mice were anesthetized using a ketamine/xylazine mixture and placed on a small-animal, head-holding frame. A scalp incision was made to determine the drill-hole location, 1 mm right and 1 mm anterior to lambda. A 27-gauge needle attached to a 10 mL sterile Hamilton syringe (Hamilton, Reno, Nev.) was stereotactically inserted 3 mm below the dural surface and cells were injected into the deep white matter of the posterior thalamus. Cells were injected in a total of 5 μL over a five minute period. The syringe was removed two minutes after the injection was completed, retracting it at a rate of 0.5 mm per minute. After removal of the syringe, the hole was covered with cranio-plastic liquid. Animals were sutured, allowed to recover on a heating pad, and returned to their cages. Animal weight and behavior was monitored every three days.
Starting on day 21 after tumor cell implantation, mice were treated by intra-cerebral (i.c.) infusion (0.5 μL/h) of F10 at 3 concentrations (80, 120 and 160 mg/kg) for a duration of 7 days. Drug was prepared in phosphate buffered saline. Osmotic pumps (ALZET® model 1007D, Alzet, Cupertino, Calif.) were primed in sterile saline overnight at 37° C. according to manufacturer's specification. The pumps were then coupled to brain infusion kits (ALZET® model 3). Animals were anesthetized using a ketamine/xylazine mixture and placed on a small-animal head holding frame, and the location of initial injection (1 mm right and 1 mm anterior to lambda) was retraced. The cannula was then inserted to a depth of 3 mm and secured with cranio-plastic adhesive and the pump was placed subcutaneously between the shoulder blades. Animals were sutured, allowed to recover and evaluated for any motor deficits resulting from the surgical procedure. […] Animals were euthanized 24 hours post-treatment when body weight loss was above 12% or when behavior prevented normal activity.
Animals received an intraperitoneal (i.p.) injection of D-luciferin (150 mg/kg, stock solution 15 mg/mL in sterile PBS, Goldbio, St. Louis, Mo.), After 10 min, animals were anesthetized with isofluorane until non-responsive, and then placed in the imaging chamber. Three bioluminescent imaging acquisitions were collected at different exposure times (10, 60, 300 sec). Mice were allowed to recover and returned to their cages. Data were analyzed based on total photon flux emission (photons) in the region of interest over the intracranial space using Living Image software (Xenogen Corp.).
Animals were deeply anesthetized with an i.p injection of ketamine/xylazine and fixed by transcardial perfusion through the heart with PBS (pH=7.4) followed by 4% paraformaldehyde in PBS (PFA). Brains were removed and fixed overnight in 4% PFA. Brains were then cryoprotected in 30% sucrose-PBS at 4° C. for 2-3 days, Brains were embedded in tissue-freezing medium (Triangle Biomedical Sciences, Durham, N.C.) and sections were cut to a thickness of 10 μm, thawed onto SuperFrost Plus slides (Fisher, Pittsburgh, Pa.) and kept at −20° C. until further processing. Sections from vehicle- and F10-treated animals were thawed prior to exposure with primary antibodies. Endogenous peroxidase activity and non-specific biotin was quenched with Peroxide Blocking Kit and Biotin Blocking Kit, respectively (ScyTek Laboratories, Logan, Utah). Antigen retrieval was performed with 10 mM sodium citrate buffer, pH 6.0, by microwaving for 5 min. Slides were blocked with SuperBlock (ScyTek) and incubated with polyclonal EphA2 antibody (R&D Systems, Minneapolis, Minn.) overnight at 4° C.

[9] = tested on: CNS malignancies included in the NCI 60 cell line panel; details: all CNS malignancies included in the NCI 60 cell line panel; cited from earlier work
G48a cells = assay: Cytotoxicity (cell viability) towards G48a GBM cells; format: cell-based, human; details: G48a cell line; FIG. 1C
SF-295 = details: at or below lowest concentration evaluated; cited from earlier work
[10] = molecular target: T2, DNA Topoisomerase 1 (Top1) cleavage complex (Homo sapiens, UniProt P11387); assay: In vivo complex of enzyme (ICE) bioassay; format: cell-based; details: SNB-19 and U-251 MG cells
T2 construct: endogenous in cells; host or cells: SNB-19 and U-251 MG GBM cells
T2 sequence (P11387 2-765 limits assumed): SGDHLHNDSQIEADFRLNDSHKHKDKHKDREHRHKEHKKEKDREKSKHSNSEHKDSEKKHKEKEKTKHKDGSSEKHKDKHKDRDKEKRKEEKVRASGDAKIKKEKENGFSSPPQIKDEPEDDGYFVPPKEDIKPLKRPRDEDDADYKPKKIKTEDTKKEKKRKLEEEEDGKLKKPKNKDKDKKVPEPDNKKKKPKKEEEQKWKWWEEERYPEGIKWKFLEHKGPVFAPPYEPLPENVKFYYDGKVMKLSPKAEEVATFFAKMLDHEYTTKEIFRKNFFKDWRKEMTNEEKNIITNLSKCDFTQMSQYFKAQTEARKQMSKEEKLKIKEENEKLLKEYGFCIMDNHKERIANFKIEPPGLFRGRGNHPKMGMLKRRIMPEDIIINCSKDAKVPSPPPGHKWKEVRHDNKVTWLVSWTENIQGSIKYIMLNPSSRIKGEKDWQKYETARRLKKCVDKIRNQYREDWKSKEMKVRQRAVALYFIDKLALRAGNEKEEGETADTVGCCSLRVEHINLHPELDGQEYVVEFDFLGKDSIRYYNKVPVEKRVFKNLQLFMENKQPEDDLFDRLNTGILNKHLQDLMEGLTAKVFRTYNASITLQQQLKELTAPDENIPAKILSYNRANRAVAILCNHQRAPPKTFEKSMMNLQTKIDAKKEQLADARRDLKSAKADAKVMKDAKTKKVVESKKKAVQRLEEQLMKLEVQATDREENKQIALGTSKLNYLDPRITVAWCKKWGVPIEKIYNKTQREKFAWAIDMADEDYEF
Experimental: G48a and primary explant cells derived from patient GBM tumors were grown in RPMI 1640 (Lonza, Rockland, Me.) supplemented with 10% FBS and glucose (2 g/L). G48a-luciferase cells were produced by lentiviral infection using a GFP-tagged vector. Cells were selected using blastocydin (10 μg/mL). U-251 MG and SNB-19 cells were obtained from ATCC and grown in RPMI 1640 (Lonza, Rockland, Me.) supplemented with 10% FBS and glucose (2 g/L). U-251 MG cells were grown in DMEM supplemented with 10% FBS and non-essential amino acids. In vivo complex of enzyme (ICE) bioassays were completed using methods similar to those previously described. (Liao et al., A novel polypyrimidine antitumor agent FdUMP[10] induces thymineless death with topoisomerase I-DNA complexes. Cancer Res. 2005; 65(10:4844-4851) GBM cells were incubated with F10 at the indicated concentrations for 0-48 hrs. Thymidine (Thy) rescue was accomplished by adding Thy at 80 μM, as the 20 μM dose previously described (Wang et al., Mechanisms of acquired chemoresistance to 5-fluorouracil and tomudex: thymidylate synthase dependent and independent networks. Cancer Chemother Pharmacol. 2007; 59(6):839-845) was not effective for rescue. Cell samples were counted and equalized for cell number. Primary antibody (mouse anti-human DNA Top I, BD Pharmingen) was added at 1:500 dilution. Secondary antibody (Cell Signaling) was used at 1:1000. […]

SF-539 = details: at or below lowest concentration evaluated; cited from earlier work
[11] = with irradiation 6 Gy, 1 nM FdUMP[10] 9 h and/or 10 nM AZD7762 1 h before, 24 h post-irradiation

T1 sequence (P04818 2-313 limits assumed): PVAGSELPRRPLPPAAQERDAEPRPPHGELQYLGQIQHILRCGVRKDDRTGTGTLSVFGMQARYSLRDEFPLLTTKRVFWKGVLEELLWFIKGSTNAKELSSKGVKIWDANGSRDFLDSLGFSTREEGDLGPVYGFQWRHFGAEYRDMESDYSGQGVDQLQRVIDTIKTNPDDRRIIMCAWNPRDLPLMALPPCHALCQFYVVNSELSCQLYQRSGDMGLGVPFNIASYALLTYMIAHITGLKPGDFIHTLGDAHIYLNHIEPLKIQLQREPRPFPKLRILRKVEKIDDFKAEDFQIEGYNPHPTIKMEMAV

Compound: O=c1[nH]cc(F)c(=O)[nH]1 [5FU, 5-fluorouracil]
- viability of primary astrocyte cultures, treated vs control [1]: no apparent differences in viability
- decreased viability for cortical neurons relative to control (primary cortical neurons): approximately 50%

Compound: NC(=O)Nc1cc(-c2cccc(F)c2)sc1C(=O)N[C@H]1CCCNC1 [AZD7762, reference compound]
- cleaved caspase 3 (apoptosis) (U138 cells [2]; [11]): do not result in significant percent of cleaved caspase 3
- cleaved caspase 3 (apoptosis) (U138 cells [2]; without irradiation, 10 nM AZD7762): do not result in significant percent of cleaved caspase 3
- survival fraction (U138 cells [3]): 0.80
- radiosensitization (U138 cells [4]): neither FdUMP[10] nor AZD7762 are appreciably radiosensitizing

- TS inhibition [5]: effectively inhibited TS
Compound: Cc1nc2ccc(CN(C)c3ccc(C(=O)N[C@@H](CCC(=O)O)C(=O)O)s3)cc2c(=O)[nH]1 [Raltitrexed, reference compound]

Compound: FdUMP[10] [F10]
- GI50 (U-251 MG): 115 nM
- GI50 (SF-268): ≤ 5 nM
- GI50 (SNB-19): 170 nM
- well-tolerated dose ([6]; i.c., osmotic mini-pump over 7 days): up to 200 mg/kg
- appearance and behaviour of mice ([6]; mouse, in vivo): light-sensitive, with eyes partially closed, and were more lethargic than mice treated with vehicle-only
- TS inhibition [5]: inhibited TS completely
- differential sensitivity for F10 relative to 5FU [7]: ~10,000 fold
- EphA2 staining, tumor-bearing side ([8]; 80 mg/kg): only trace levels of EphA2 positive staining
- EphA2 staining, tumor-bearing side ([8]; 120 mg/kg): no EphA2 staining
- mean tumor volumes (%-change in photon emission) ([8]; 120 mg/kg i.c. over 7 days, p<0.01): significantly decreased relative to control
- extent of tumor cell necrosis (H&E) ([8]; 120 mg/kg vs 80 mg/kg): greater tumor cell necrosis than the 80 mg/kg dose
- luminescent signal (IVIS imaging) ([8]; 160 mg/kg i.c. over 7 days): did not display decreased lumincescent signal
- treatment effect by histology ([8]; 160 mg/kg i.c. over 7 days): significant treatment effect
- tumor regression (IVIS imaging) ([8]; 80 and 120 mg/kg i.c. over 7 days): significant tumor regression
- necrosis in tumor tissue (H&E) ([8]; 80 or 120 mg/kg i.c. over 7 days): extensive areas of necrosis selectively within tumor tissue
- necrosis in contralateral side of brain (H&E) ([8]; mouse, in vivo): no observable necrosis
- GI50 [9]: < 1000 nM
- DNA content / cell cycle (U138 cells [2]; 1 nM FdUMP[10] and/or 10 nM AZD7762): causes G2-arrest
- cleaved caspase 3 (apoptosis) (U138 cells [2]; [11]): result predominantly in apoptotic cells
- IC50 (G48a cells): ~1000 nM
- GI50 (SF-295): ≤ 5 nM
- survival fraction (U138 cells [3]): 0.84
- radiosensitization (U138 cells [4]): neither FdUMP[10] nor AZD7762 are appreciably radiosensitizing
- Top1CC formation [10]: induces Top1CC formation
- GI50 (SF-539): ≤ 5 nM
